Results taken from patent publication US20080004306A1, “Compositions and methods for modulating gated ion channels” (PainCeptor Pharma Corporation, priority 2006, published 2008).

Assays:
hASIC1a [1] = biological target: T1, hASIC1a (Homo sapiens, UniProt P78348); assay: Two-electrode voltage clamp in Xenopus laevis oocytes expressing gated ion channels (Xo, Example 3); assay type: cell-based; conditions: for inhibition at 50 µM: read-out: % inh. at 50 μM (Xo)
T1 construct: expressed in transfected cells; host or cells: Xenopus laevis oocytes, nuclear microinjection of an expression vector such as pCDNA3
T1 sequence (P78348 1-528): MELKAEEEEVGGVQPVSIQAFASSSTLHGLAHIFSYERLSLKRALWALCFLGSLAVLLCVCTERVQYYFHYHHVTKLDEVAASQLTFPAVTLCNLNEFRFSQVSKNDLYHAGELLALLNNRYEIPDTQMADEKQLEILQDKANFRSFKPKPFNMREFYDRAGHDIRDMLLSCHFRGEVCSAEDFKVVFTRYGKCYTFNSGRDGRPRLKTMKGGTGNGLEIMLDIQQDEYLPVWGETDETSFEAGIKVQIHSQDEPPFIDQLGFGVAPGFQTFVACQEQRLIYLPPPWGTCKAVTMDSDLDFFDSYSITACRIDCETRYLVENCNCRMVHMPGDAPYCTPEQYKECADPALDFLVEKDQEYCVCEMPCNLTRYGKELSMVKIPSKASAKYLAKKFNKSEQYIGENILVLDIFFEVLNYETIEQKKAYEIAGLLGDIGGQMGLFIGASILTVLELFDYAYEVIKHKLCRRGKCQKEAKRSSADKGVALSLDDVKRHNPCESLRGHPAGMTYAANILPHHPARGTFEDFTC
Description: Two-electrode voltage clamp electrophysiological assays in Xenopus laevis oocytes expressing gated ion channels are performed as follows:
Oocytes are surgically removed from adult Xenopus laevis and treated for 2 h at room temperature with 1 mg/ml type I collagenase (Sigma) in Barth's solution under mild agitation. Selected oocytes at stage IV-V are defolliculated manually before nuclear microinjection of 2.5-5 ng of a suitable expression vector, such as pCDNA3, comprising the nucleotide sequence encoding a gated ion channel subunit protein. In such an experiment, the oocytes express homomultimeric proton-gated ion channels on their surface. In an alternate experiment, one, two, three or more vectors comprising the coding sequences for distinct gated ion channel subunits are co-injected in the oocyte nuclei. In the latter case, oocytes express heteromultimeric proton-gated ion channels. […] Once impaled with the microelectrodes, oocytes are continuously superfused at 10-12 ml/min with a modified Ringer's solution containing 97 mM NaCl, 2 mM KCl, 1.8 mM CaCl2, and 10 mM HEPES brought to pH 7.4 with NaOH (Control Ringer). Test Ringer solution is prepared by replacing HEPES with MES and adjusting the pH to the desired acidic value. Compounds of the present invention are prepared in both the Control and Test Ringer solutions and applied to oocytes at room temperature through a computer-controlled switching valve system. […] Similarly, recordings can also be acquired in an automated multichannel oocytes system as the OpusExpress™ (Molecular Devices, Sunnyvale, USA).

hASIC1a [2] = biological target: T1, hASIC1a; assay: Whole cell patch clamp in HEK293 cells transfected with hASIC1a (Example 2); assay type: cell-based; conditions: six point dose-response, whole cell patch clamp (FIG. 1B), read-out: IC50, inhibition of acid-induced hASIC1a activity
Description: Another example of an in vitro assessment method consists of using mammalian heterologous expression systems, which are known to the skilled in the art, and include a variety of mammalian cell lines such as COS, HEK, e.g., HEK293and/or CHO, cells. Cell lines are transfected with gated ion channel(s) and used to perform electrophysiology as follows:
All experiments are performed at room temperature (20-25° C.) in voltage clamp using conventional whole cell patch clamp methods (Neher, E., et al. (1978) Pfluegers Arch 375:219-228).
The amplifier used is the EPC-9 (HEKA-electronics, Lambrect, Germany) run by a Macintosh G3 computer via an ITC-16 interface. Experimental conditions are set with the Pulse-software accompanying the amplifier. […]
Coverslips with the cells are transferred to a 15 μl experimental chamber mounted on the stage of an inverted microscope (IMT-2, Olympus) supplied with Nomarski optics. […] The cells are held at a holding voltage of −60 mV and at the start of each experiment the current is continuously measured for 45 s to ensure a stable baseline. […] Current amplitudes are measured at the peak of the responses, and effect of the compounds is calculated as the amplitude at compound equilibrium divided by the amplitude of the current evoked by the pulse just before the compound is included. […]

[3] = system: thermal hyperalgesia from carrageenan-induced paw inflammation; assay: Carrageenan model, thermal hyperalgesia (Hargreaves' assay); assay type: in vivo, rat
Description: Acute inflammatory hyperalgesia is induced in rats by unilateral injection of […] of a 3% solution of 1-carrageenan into the plantar surface of the left hind paw 2-4 h prior to testing. Thermal nociceptive thresholds are determined according to the method described elsewhere (Hargreaves et al., 1988). Briefly, through the glass surface, a radiant heat source (8 V, 50 W projector bulb) is focused onto the plantar surface of the hind paw. The rat's paw-withdrawal latency to this stimulus is recorded to the nearest 0.1 s. Each latency score is an average of three trials, which are separated by at least 5 min. In all rats, both the injured and uninjured hind paws are similarly tested, allowing direct comparisons between inflamed and non-inflamed paws.

[4] = Xenopus laevis oocytes, two-electrode voltage clamp
[5] = Xenopus laevis oocytes, two-electrode voltage clamp, Table 1, read-out: IC50 (Xo)

SMILES | inhibition at 50 µM (hASIC1a [1]; [4]) [%] | IC50 (hASIC1a [1]; [5]) [µM] | other results
CCN1CCc2c(-c3ccccc3)cc3c(c2C1)NC(=O)C3=CNC [Compound 3] | < 25 |  | 
CCN1CCc2c(-c3ccccc3)cc3c(c2C1)NC(=O)C3=CNCCO [Compound 4] | < 25 |  | 
CCN1CCc2c(-c3ccccc3)cc3c(N)n[nH]c3c2C1 [Compound 6] |  | > 50 | 
CCN1CCc2c(-c3cc(F)ccc3OC)cc3cc[nH]c3c2C1 [Compound 7] |  | > 50 | 
CCN1CCc2c(-c3cc(F)ccc3OC)cc3c(C=O)c[nH]c3c2C1 [Compound 8] |  | > 50 | 
CCN1CCc2c(-c3ccccc3)cc3cc[nH]c3c2C1 [Compound 9] |  | > 50 | 
CCN1CCc2c(-c3ccccc3)cc3c(C=O)c[nH]c3c2C1 [Compound 10] |  | > 50 | 
CCN1CCc2c(-c3ccccc3)cc3c(C(N)=O)c[nH]c3c2C1 [Compound 11] |  | > 50 | 

Second part, led by results:

inhibition at 50 µM (hASIC1a [1]; [4]) [%] | SMILES | IC50 (hASIC1a [1]; [5]) [µM] | other results
25 to 45 | CCN1CCc2c(-c3ccccc3)cc3c(c2C1)NC(=O)C3SC (stereo not drawn) [Compound 1] |  | 
< 25 | CCN1CCc2c(-c3ccccc3)cc3c(c2C1)NC(=O)C3 [Compound 2] |  | 
> 50 | CCN1CCc2c(-c3ccccc3)cc3c(c2C1)NC(=O)C3=CN [Compound 5] |  | IC50 (hASIC1a [1]; three point dose-response, acid-induced hASIC1a currents in Xenopus laevis oocytes (FIG. 1A), read-out: IC50, half maximal inhibition of the acid-evoked response in hASIC1a): 10 µM; IC50 (hASIC1a [2]): 15 µM; effect on thermal hyperalgesia ([3]; 75 mg/kg s.c., given 30 min prior to carrageenan, 2-4 hours post-carrageenan, versus control paw level): completely reversed; ED50 ([3]; Rattus norvegicus, sc, 30 min prior to carrageenan, tested 2, 3 and 4 h post carrageenan): ~50 mg/kg
